Reference: patent US7635686B2, “Therapeutically useful triethyleneglycol cholesteryl oligonucleotides” (Bioniche Life Sciences, Inc., priority 2001, dated 2009)

Columns and labels:
[1] = system: MEG-01 cells; experiment: Cell cycle stage in MEG-01 cells (propidium iodide flow cytometry); type: cell-based, human; conditions: 24 h
Protocol: To determine a cell cycle stage, various assays and procedures known to one skilled in the art may be employed. One such procedure uses a CYCLETEST™ PLUS DNA commercial kit (Becton Dickinson, Franklin Lakes, N.J.). Briefly, nuclei from cells are obtained by dissolving the cell membrane in a nonionic detergent, eliminating the cell cytoskeleton and nuclear proteins with trypsin, digesting the cellular RNA with RNase, and stabilizing the nuclear chromatin with spermine. Propidium iodide is added to the cell nuclei and their fluorescence was analyzed in a flow cytometer equipped with electronic doublet discrimination capability (FACSCalibur, Becton Dickinson, Franklin Lakes, N.J.). Accumulation of cells in G0/G1, early S (SE), mid S (SM), late S (SL) or G2/M phases of the cell cycle may be analyzed using MODFIT LT software (Verity Software House Inc., Topsham, Mass.), or other appropriate software.
Exponentially growing MEG-01 cells (2×10^5 cells/ml) were incubated for 24 h with 0 μM (control), 53 μM of SEQ ID NO:2 or 53 μM of SEQ ID NO:6. The cells were collected, centrifuged, and cell cycle stage was determined.

[2] = system: MEG-01 cells; experiment: Apoptosis by phosphatidylserine redistribution (FITC-annexin V flow cytometry) in MEG-01 cells; type: cell-based, human; conditions: 48 hours; for Percentage of positive cells for phosphatidylserine (cells in apoptosis) in MEG-01 cells: untreated cells 12%
Protocol: Redistribution of plasma membrane phosphatidylserine is a characteristic of cells undergoing apoptosis (Martin et al., J. Exp. Med., 182:1545, 1995). The redistribution of phosphatidylserine in the plasma membrane during apoptosis was measured by flow cytometry using FITC (fluorescein isothiocyanate)-conjugated annexin V (BD Pharmingen, San Diego, Calif.). MEG-01 cells, a human chronic myelogeneous leukemia cell line positive for the Philadelphia chromosome and having a BCR-ABL gene fusion, were incubated at 2.5×10^5 cells/ml for 48 hours with 5.3, 26.5 and 53.0 μM final concentrations of SEQ ID NO:1, SEQ ID NO:2, SEQ ID NO:5, SEQ ID NO:6 and cholesteryl-TEG phosphoramidite molecule. The percentage of cells in apoptosis after exposure to the SEQ ID NOs:1, 2, 5, 6, or cholesteryl-TEG phosphoramidite treatment is reported in Table 2. The percentage of apoptosis in untreated MEG-01 cells was 12%.

[3] = system: HIG-82 cells; experiment: Apoptosis by nuclear DNA fragmentation (TUNEL, flow cytometry) in HIG-82 cells; type: cell-based, rabbit; conditions: 53 μM
Protocol: Adherent HIG-82 cells were incubated at 1.0×10^5 cells/ml for 48 hours with 53 μM final concentration of SEQ ID NO:1, SEQ ID NO:2, SEQ ID NO:5 or SEQ ID NO:6. Since phosphatidylserine/annexin V detection of apoptosis was not reliable after adherent cell harvesting techniques, such as trypsinization (van Engeland, Cytometry, 31:1, 1998), apoptosis in HIG-82 cells was evaluated using flow cytometry by the detection of fragmented DNA by terminal deoxynucleotidyl transferase enzyme-mediated bromodeoxyuridine triphosphate-biotin nick end-labeling (TUNEL) using a commercial assay (APO-BRDU™ kit; BD Pharmingen). The percentage of cells containing nuclear DNA fragmentation was determined. After 24 hours, untreated HIG-82 cells were essentially negative for nuclear DNA fragmentation.

[4] = system: Hs578T cells; experiment: Release of nuclear mitotic apparatus protein (NuMA) by Hs578T cells (ELISA); type: cell-based, human; conditions: Hs578T monolayer, 53 μM, 72 hrs; percentage increase
Protocol: Hs578T cells were cultured as monolayer in negative control conditions or with 53 μM final concentraition of SEQ ID NO:2, 53 μM of SEQ ID NO:6 for 72 hrs. The release of nuclear mitotic apparatus protein (NuMA) was used as a measure of apoptosis. NuMA was determined using a commercial ELISA kit following the manufacturer's protocol. Results are shown in Table 11 and are expressed as the percentage increase in NuMA release compared to control conditions based on optical density measurements.

[5] = system: HIG-82 cells; experiment: HIG-82 synovial cell proliferation (MTT reduction); type: cell-based, rabbit; conditions: 53 μM, 48 hours
Protocol: Adherent HIG-82 cells, a synovial cell line, were incubated at 10×10^5 cells/ml for 48 hours with 53 μM (final concentration) of SEQ ID NO:2, SEQ ID NO:3, SEQ ID NO:4, SEQ ID NO:6, SEQ ID NO:7, or SEQ ID NO:8. Cellular proliferation was measured using dimethylthiazol-diphenyl-tetrazolium (MTT) reduction (Mosman et al., J. Immunol. Methods 65:55, 1983). MTT was measured at a wavelength of 570 nm using a multiple spectrophotometer reader (ELX800, Bio-TEK, Instruments Inc., Winooski, Vt.). The percentage of inhibition, calculated as […]

5′ OH-GGGAGG-OH 3′ (listed as DNA, chemistry not fully specified) [SEQ ID NO:2]
Induction of cell cycle arrest in MEG-01 cells (in words) ([1]; 53 μM): inactive | % of cells in phase SM ([1]; MEG-01, 53 μM, untreated 10.8): 11.6% | % of cells in phase SL + G2/M ([1]; MEG-01, 53 μM, untreated 17.8): 19.8% | % of cells in phase G0/G1 + SE ([1]; MEG-01, 53 μM, untreated 71.4): 68.6% | Percentage of positive cells for phosphatidylserine (cells in apoptosis) in MEG-01 cells ([2]; 5.3 μM): 12% | Percentage of positive cells for phosphatidylserine (cells in apoptosis) in MEG-01 cells ([2]; 26.5 μM): 12% | Percentage of positive cells for phosphatidylserine (cells in apoptosis) in MEG-01 cells ([2]; 53.0 μM): 12% | Induction of apoptosis in MEG-01 cells (in words) ([2]; translocation of phosphatidylserine, up to 53.0 μM): inactive | Percentage of cells containing DNA fragmentation (cells in apoptosis) in HIG-82 cells ([3]; 48 hours, TUNEL): 1% | Induction of apoptosis in HIG-82 cells (in words) ([3]; fragmented nuclear DNA): inactive | NuMA release compared to control (%) [4]: +8% | Inhibition of proliferation of synovial HIG-82 cells (in words) [5]: did not inhibit proliferation | Inhibition of HIG-82 cell proliferation, inhibition (%) ([5]; MTT): 6%
